SMILES strings stand for the structures.

The first series is described as follows: Log P by HPLC on reversed phase columns (EEC directive 79/831 Annex V.A8). It is filed as physicochemical.
Conditions: not given
Here is the method:
Measurement of Log P values was performed according to EEC directive 79/831 Annex V.A8 by HPLC (High Performance Liquid Chromatography) on reversed phase columns with the following methods: • ^[a]Log P value is determined by measurement of LC-UV, in an acidic range, with 0.1% formic acid in water and acetonitrile as eluent (linear gradient from 10% acetonitrile to 95% acetonitrile). • ^[b]Log P value is determined by measurement of LC-UV, in a neutral range, with 0.001 molar ammonium acetate solution in water and acetonitrile as eluent (linear gradient from 10% acetonitrile to 95% acetonitrile). • ^[c]Log P value is determined by measurement of LC-UV, in an acidic range, with 0.1% phosphoric acid and acetonitrile as eluent (linear gradient from 10% acetonitrile to 95% acetonitrile).
If more than one Log P value is available within the same method, all the values are given and separated by “+”.
Calibration was done with straight-chain alkan2-ones (with 3 to 16 carbon atoms) with known Log P values (measurement of Log P values using retention times with linear interpolation between successive alkanones). Lambda-max-values were determined using UV-spectra from 200 nm to 400 nm and the peak values of the chromatographic signals.
Take `Cc1ccccc1CC(O)(Cn1cnnn1)C1(Cl)CC1` (stereo not drawn) [Ia-66]: the LogP was 2.77^[a]. Still for that read-out and setting: then `OC(Cc1ccc(F)cc1Cl)(Cn1cnnn1)C1(Cl)CC1` (stereo not drawn) [Ia-39], with 2.90^[a]; and `COc1cc(F)c(CC(O)(Cn2ncnn2)C2(Cl)CC2)c(F)c1` (stereo not drawn) [Ib-15], with 3.11^[a].

On to `OC(Cc1ccccc1C(F)(F)F)(Cn1cnnn1)C1(Cl)CC1` (stereo not drawn) [Ia-07], for which the LogP was 3.02^[a]. Same read-out and setting: then `OC(Cc1ccc(F)c(Cl)c1)(Cn1cnnn1)C1(Cl)CC1` (stereo not drawn) [Ia-52], with 2.90^[a]; and `OC(Cc1cccc(Cl)c1F)(Cn1ncnn1)C1(Cl)CC1` (stereo not drawn) [Ib-06], with 3.19^[a]. For the compound `CC1(C(=O)Cn2cnnn2)CC1` [XVIa-02], the LogP is 0.79^[a]. For `C=C(c1cccc(F)c1F)C(O)(Cn1cnnn1)C1(Cl)CC1` (stereo not drawn) [Ia-en-08], the LogP was 2.57^[a]. As to `CC1(C(O)(Cc2ccccc2Cl)Cn2cnnn2)CC1` (stereo not drawn) [Ia-08], the LogP is 2.80^[a]. `OC(Cc1c(F)cc(Cl)cc1F)(Cn1cnnn1)C1(Cl)CC1` (stereo not drawn) [Ia-75]: the LogP is 2.98^[a]. For `C=C(c1ccccc1)C(O)(Cn1cnnn1)C1(Cl)CC1` (stereo not drawn) [Ia-en-03], the LogP was 2.46^[a]. As to `Cc1ccc(CC(O)(Cn2cnnn2)C2(Cl)CC2)cc1` (stereo not drawn) [Ia-57], the LogP is 2.78^[a].

With `COc1c(F)ccc(CC(O)(Cn2cnnn2)C2(Cl)CC2)c1F` (stereo not drawn) [Ia-50], the LogP was 2.62^[a]. For `OC(Cc1cncc(F)c1)(Cn1cnnn1)C1(Cl)CC1` (stereo not drawn) [Ia-59], the LogP was 1.53^[a]. `COc1ccc(CC(O)(Cn2ncnn2)C2(Cl)CC2)c(F)c1F` (stereo not drawn) [Ib-13]: the LogP is 2.94^[a]. In the case of `COc1cc(F)c(CC(O)(Cn2cnnn2)C2(Cl)CC2)c(F)c1` (stereo not drawn) [Ia-49], the LogP is 2.69^[a]. For `C=C(c1ccccc1F)C(O)(Cn1ncnn1)C1(Cl)CC1` (stereo not drawn) [Ib-en-01], the LogP is 2.96^[a]. For `O=C(Cn1cnnn1)C1(F)CC1` [XVIa-03], the LogP was 0.59^[a]. For the compound `OC(Cc1ccc(Cl)cc1F)(Cn1ncnn1)C1(Cl)CC1` (stereo not drawn) [Ib-08], the LogP is 3.37^[a]. In the case of `OC(Cc1ccc(F)c(F)c1)(Cn1cnnn1)C1(Cl)CC1` (stereo not drawn) [Ia-56], the LogP is 2.64^[a]. For `OC(Cc1ccccc1Br)(Cn1cnnn1)C1(F)CC1` (stereo not drawn) [Ia-21], the LogP was 2.49^[a]. Turning to `OC(Cc1ccncc1Cl)(Cn1ncnn1)C1(Cl)CC1` (stereo not drawn) [Ib-22], the LogP is 1.96^[b].

`OC(Cc1cccc(Br)c1)(Cn1cnnn1)C1(F)CC1` (stereo not drawn) [Ia-23]: the LogP is 2.59^[a].

Turning to `Cc1ccccc1CC(O)(Cn1cnnn1)C1(C)CC1` (stereo not drawn) [Ia-12], the LogP is 2.75^[a].

Take `O=C(Cn1ncnn1)C1(F)CC1` [XVIb-03]: the LogP was 0.86^[a].

For the compound `CC(c1cccc(F)c1F)C(O)(Cn1cnnn1)C1(Cl)CC1` (stereo not drawn) [Ia-25], the LogP was 2.96^[a]. Take `COc1c(F)ccc(CC(O)(Cn2ncnn2)C2(Cl)CC2)c1F` (stereo not drawn) [Ib-14]: the LogP is 3.00^[a].

Regarding `OC(Cc1ccc(F)cc1F)(Cn1ncnn1)C1(Cl)CC1` (stereo not drawn) [Ib-17], the LogP is 2.96^[a].

For the compound `OC(Cc1cc(Cl)ccc1F)(Cn1cnnn1)C1(Cl)CC1` (stereo not drawn) [Ia-29], the LogP was 2.86^[a].

On to `C=C(c1cc(F)ccc1F)C(O)(Cn1cnnn1)C1(Cl)CC1` (stereo not drawn) [Ia-en-01], for which the LogP was 2.54^[a]. Regarding `OC(Cc1cccc(Cl)c1F)(Cn1cnnn1)C1(Cl)CC1` (stereo not drawn) [Ia-02], the LogP was 2.72^[a].

Take `OC(Cc1ccncc1Cl)(Cn1cnnn1)C1(Cl)CC1` (stereo not drawn) [Ia-73]: the LogP is 1.65^[a]. Regarding `Cc1ccc(CC(O)(Cn2ncnn2)C2(Cl)CC2)c(F)c1F` (stereo not drawn) [Ib-21], the LogP was 3.33^[a]. Same read-out and setting: then `CC=C(c1cccc(F)c1F)C(O)(Cn1cnnn1)C1(Cl)CC1` (racemic) [Ia-en-07], with 2.75^[a]; and `OC(Cc1ccc(F)c(F)c1F)(Cn1ncnn1)C1(Cl)CC1` (stereo not drawn) [Ib-10], with 3.11^[a]; and `OC(Cc1ccc(Cl)cc1F)(Cn1cnnn1)C1(Cl)CC1` (stereo not drawn) [Ia-40], with 2.90^[a].

`CC=C(c1ccccc1F)C(O)(Cn1cnnn1)C1(Cl)CC1` (racemic) [Ia-en-04]: the LogP is 2.66^[a]. For `COC(Cc1ccccc1Br)(Cn1cnnn1)C1(Cl)CC1` (stereo not drawn) [Ia-70], the LogP was 3.23^[a]. Regarding `OC(Cc1ccc(F)c(Cl)c1F)(Cn1cnnn1)C1(Cl)CC1` (stereo not drawn) [Ia-38], the LogP is 2.94^[a].

As to `COc1cccc(CC(O)(Cn2cnnn2)C2(C)CC2)c1` (stereo not drawn) [Ia-61], the LogP is 2.37^[a]. Still for that read-out and setting: then `C=C(c1ccccc1Cl)C(O)(Cn1cnnn1)C1(Cl)CC1` (stereo not drawn) [Ia-en-09], with 2.71^[a]. For the compound `Cc1ccc(CC(O)(Cn2cnnn2)C2(F)CC2)cc1` (stereo not drawn) [Ia-33], the LogP was 2.44^[a].

Take `OC(Cc1ccc(F)cc1F)(Cn1cnnn1)C1(Cl)CC1` (stereo not drawn) [Ia-53]: the LogP was 2.57^[a]. Turning to `OC(Cc1cccc(F)c1)(Cn1cnnn1)C1(Cl)CC1` (stereo not drawn) [Ia-69], the LogP is 2.54^[a].

Take `Cc1ccc(F)c(CC(O)(Cn2cnnn2)C2(Cl)CC2)c1Cl` (stereo not drawn) [Ia-45]: the LogP was 3.23^[a].

Take `OC(Cc1ccccc1OC(F)(F)F)(Cn1cnnn1)C1(Cl)CC1` (stereo not drawn) [Ia-32]: the LogP was 3.06^[a]. Same read-out and setting: then `Cc1cccc(CC(O)(Cn2cnnn2)C2(F)CC2)c1` (stereo not drawn) [Ia-28], with 2.42^[a]; and `CC1(C(O)(Cc2cccc(Br)c2)Cn2cnnn2)CC1` (stereo not drawn) [Ia-63], with 2.84^[a]; and `CC=C(c1cccc(Cl)c1F)C(O)(Cn1cnnn1)C1(Cl)CC1` (racemic) [Ia-en-05], with 3.00^[a].

As to `OC(Cc1ccccc1C(F)(F)F)(Cn1cnnn1)C1(F)CC1` (stereo not drawn) [Ia-76], the LogP was 2.71^[a]. Regarding `OC(Cc1ccccc1Br)(Cn1cnnn1)C1(Cl)CC1` (stereo not drawn) [Ia-24], the LogP was 2.88^[a]. For `OC(Cc1ccccc1)(Cn1cnnn1)C1(F)CC1` (stereo not drawn) [Ia-17], the LogP is 2.08^[a]. Regarding `CC1(C(O)(Cc2ccccc2F)Cn2cnnn2)CC1` (stereo not drawn) [Ia-68], the LogP was 2.45^[a].

As for `COc1ccc(F)c(CC(O)(Cn2cnnn2)C2(Cl)CC2)c1F` (stereo not drawn) [Ia-46], the LogP was 2.51^[a]. Regarding `OC(Cc1cncc(Cl)c1)(Cn1ncnn1)C1(Cl)CC1` (stereo not drawn) [Ib-01], the LogP was 2.13^[a]. Consider `Cc1ccc(F)c(CC(O)(Cn2cnnn2)C2(Cl)CC2)c1F` (stereo not drawn) [Ia-36], for which the LogP is 2.90^[a].

For `CC=C(c1cccc(F)c1F)C(O)(Cn1cnnn1)C1(Cl)CC1` (racemic) [Ia-en-06], the LogP is 2.82^[a].

On to `OC(Cc1ccc(F)c(F)c1F)(Cn1cnnn1)C1(Cl)CC1` (stereo not drawn) [Ia-44], for which the LogP was 2.71^[a]. Regarding `Cc1ccc(F)c(CC(O)(Cn2ncnn2)C2(Cl)CC2)c1F` (stereo not drawn) [Ib-09], the LogP was 3.37^[a]. Same read-out and setting: then `OC(Cc1cc(F)cc(F)c1F)(Cn1cnnn1)C1(Cl)CC1` (stereo not drawn) [Ia-43], with 2.66^[a]; and `COc1ccc(CC(O)(Cn2cnnn2)C2(Cl)CC2)c(F)c1F` (stereo not drawn) [Ia-48], with 2.59^[a]. `OC(Cc1cc(F)c(F)cc1F)(Cn1ncnn1)C1(Cl)CC1` (stereo not drawn) [Ib-16]: the LogP was 3.09^[a].

In the case of `OC(Cc1cc(F)c(F)cc1F)(Cn1cnnn1)C1(Cl)CC1` (stereo not drawn) [Ia-51], the LogP is 2.66^[a]. With `OC(Cc1c(F)ccc(F)c1F)(Cn1cnnn1)C1(Cl)CC1` (stereo not drawn) [Ia-54], the LogP was 2.60^[a]. On the same count and under the same terms, then `COc1cccc(CC(O)(Cn2cnnn2)C2(Cl)CC2)c1` (stereo not drawn) [Ia-60], with 2.42^[a]; and `OC(Cc1c(F)cccc1Cl)(Cn1cnnn1)C1(Cl)CC1` (stereo not drawn) [Ia-72], with 2.90^[a]; and `COc1ccc(CC(O)(Cn2cnnn2)C2(F)CC2)cc1` (stereo not drawn) [Ia-27], with 2.08^[a]. Turning to `CC1(C(O)(Cc2ccccc2Br)Cn2cnnn2)CC1` (stereo not drawn) [Ia-09], the LogP was 2.92^[a]. As for `COC(Cc1ccccc1Cl)(Cn1cnnn1)C1(Cl)CC1` (stereo not drawn) [Ia-37], the LogP was 3.19^[a]. Consider `COc1ccc(CC(O)(Cn2cnnn2)C2(Cl)CC2)cc1` (stereo not drawn) [Ia-58], for which the LogP was 2.40^[a]. In the case of `COc1ccc(CC(O)(Cn2cnnn2)C2(C)CC2)cc1` (stereo not drawn) [Ia-34], the LogP was 2.35^[a]. The same measure, in the same setting: then `CC(c1cc(F)ccc1F)C(O)(Cn1cnnn1)C1(Cl)CC1` (single isomer, unassigned) [Ia-18], with 2.92^[a]; and `OC(Cc1cccc(F)c1F)(Cn1cnnn1)C1(Cl)CC1` (stereo not drawn) [Ia-06], with 2.46^[a]; and `OC(Cc1cc(F)cc(F)c1F)(Cn1ncnn1)C1(Cl)CC1` (stereo not drawn) [Ib-11], with 3.06^[a]. Still for that read-out and setting: then `OC(Cc1ccc(F)c(Cl)c1)(Cn1ncnn1)C1(Cl)CC1` (stereo not drawn) [Ib-18], with 3.33^[a]; and `OC(Cc1c(F)cccc1F)(Cn1cnnn1)C1(Cl)CC1` (stereo not drawn) [Ia-13], with 2.52^[a]; and `OC(Cc1cccc(F)c1F)(Cn1ncnn1)C1(Cl)CC1` (stereo not drawn) [Ib-03], with 2.82^[a].

Take `OC(Cc1c(F)cc(F)cc1F)(Cn1ncnn1)C1(Cl)CC1` (stereo not drawn) [Ib-07]: the LogP is 3.09^[a].

Still in this series, the particulars now being: method [a]: LC-UV, acidic range, 0.1% formic acid in water and acetonitrile as eluent.
Broadly, the chromatographic logP is lipophilicity estimated from chromatographic retention. A high value points to higher lipophilicity. `O=C(Cn1ncnn1)C1(Cl)CC1` [XVIb-01, 1-(1-chlorocyclopropyl)-2-(tetrazol-2-yl)ethanone]: the chromatographic logP is 1.3. `OC(Cc1ccccc1Cl)(Cn1ncnn1)C1(Cl)CC1` (stereo not drawn) [Ib-04, 2-(1-chlorocyclopropyl)-1-(2-chlorophenyl)-3-(tetrazol-2-yl)propan-2-ol] gave a chromatographic logP of 3.2. The same measure, in the same setting: then `O=C(Cn1cnnn1)C1(Cl)CC1` [XVIa-01, 1-(1-chlorocyclopropyl)-2-(tetrazol-1-yl)ethanone], with 0.99.
